Laboratory results taken from patent publication US10087226B2, “Chimeric peptide that interacts with cell membrane gangliosides” (Universite D'Aix-Marseille, priority 2014, dated 2018).
Ends that are not written are not given here.

Tests used:
[1] = Lipid monolayer assay (Langmuir film balance), GM1 monolayer; format: binding; settings: for interaction with GM1 monolayer (surface pressure increase): peptide 10 μM in subphase
Procedure: Peptide-cholesterol interactions were studied with the Langmuir film balance technique using a Kibron microtensiometer as previously described (Fantini and Yahi, 2011a).
In this experiment, a monolayer of ganglioside GM1 was prepared at the air-water interface and the peptide was injected in the aqueous subphase. The interaction of the peptide with the ganglioside was evidenced by an increase in the surface pressure of the monolayer, which was followed in real-time with a platinum probe (see Thakur et al, 2009 for a full description of the technique and its application to amyloid proteins). […] Then single mutants were assayed to identify which of the two His is actually critical for GM1 recognition. […] In this model, His-13 interacted with one GM1, and His-14 with the second one. Clearly, the cooperation between both GM1 molecules allowed an optimal interaction with the Aβ5-16 peptide driven by histidine residues. Conversely, because it is devoid of these histidine residues, the glycolipid-binding domain of α-synuclein (α-syn34-45) has a marked preference for ganglioside GM3 instead of GM1.

[2] = test system: SH-SY5Y cells; assay: Calcium measurements, amyloid pore formation induced by Aβ1-42; format: cell-based, human
Procedure: A. In a first experiment, SH-SY5Y cells were treated with Aβ1-42peptide (220 nM), and Ca^2+ dependent fluorescence was analyzed (top curve). In a second series of experiments, Aβ1-42 and the chimeric α-syn34-45/HH peptide (both 220 nM) were mixed extemporaneously directly injected onto the cells (C1 and C2 curves corresponding to two separate experiments). The C3 curve corresponds to the calcium response induced by the chimeric peptide alone. Results are expressed as mean±SD (n=100). In panel B, the same colors were used but the chimeric peptide was replaced by the wild-type α-syn34-45 peptide.
A. SH-SY5Y cells were treated with Aβ1-42 peptide (220 nM), and Ca^2+ dependent fluorescence was analyze. […] In absence of the chimeric peptide (− Pep Chim), amyloid pore formation induced by the Aβ1-42 peptide was evidenced by an increase of Ca^2+ fluorescence inside the cells. […] Warmer colors correspond to higher fluorescence (left scale).
Cells were plated in 35 mm culture dishes, grown during 72 h and loaded with 5 μM Fluo-4 AM (Invitrogen-Life Technologies, Saint Aubin, France) for 30 min in the dark, washed three times with HBSS (Gibco-Life Technologies, Saint-Aubin, France), and incubated for 20 min at 37° C. […] Fluorescence emission at 525 nm was imaged by a digital camera CDD (ORCA-ER Hamanatsu, Japan) after fluorescence excitation at 490 nm. […]

[3] = test system: bEnd-3 cells co-cultured with astrocytic CTX-TNA2 cells
Procedure: (§1) These cells are plated at various densities ranging from 10.000 to 50.000 cells per well in two-compartment cell chambers (Greiner Bio-one). The lower compartment of the chamber is a well that is part of 12-well culture plate. The upper chamber is equipped with a permeable filter (mean pore diameter of 0.4 μm) onto which the cells are seeded. The cells are cultured in DMEM/F12 10% fetal calf serum.
(§2) At confluency, the cells formed a uniform monolayer with a transendothelial resistance of 150-200 Ω·cm^2 (measured with the EVOM apparatus, WPI). The transendothelial resistance reflects the presence of tight junctions overall the culture. These tight junctions efficiently prevent the paracellular passage of molecules. It is considered that the endothelium is tight when this value is >100 Ω·cm^2. Therefore, all experiments are performed with functional endothelial barriers. […]
(§3) The passage of the peptide through the endothelial barrier is thus followed in real-time. The concentration of the chimeric peptide is determined by spectrophotometry. […]

[4] = test system: bEnd-3 cells co-cultured with glial C6 cells
Procedure: as §1, §2, §3

[5] = Lipid monolayer assay, GD3 monolayer; format: binding; settings: peptide 10 μM in aqueous subphase
[6] = Lipid monolayer assay, GD1a monolayer; format: binding; settings: peptide 10 μM in aqueous subphase
[7] = Lipid monolayer assay, GM3 monolayer; format: binding
[8] = Lipid monolayer assay, GM4 monolayer; format: binding; settings: peptide 10 μM in aqueous subphase
[9] = Lipid monolayer assay, GT1b monolayer; format: binding; settings: peptide 10 μM in aqueous subphase
[10] = initial surface pressure 17.5 mN·m^−1
[11] = ganglioside monolayer, peptide 10 μM in aqueous subphase

**Q.** With “RHDSGYEVHHQK (listed as Homo sapiens) [Aβ5-16]” as the sequence, how does the “interaction with GM1 monolayer (surface pressure increase)” value [1, 10] read?
**A.** The value was “surface pressure started to increase immediately after the injection”.

**Q.** And the “time to maximum surface pressure, GM1 monolayer” value ([1]; peptide 10 μM, initial surface pressure 17.5 mN·m^−1)?
**A.** The value was 30 min.

**Q.** With “KEGVLYVGHHTK [α-syn34-45/HH, KEGVLYVGHHTK]” as the sequence, how does the “effect of peptide alone on Ca^2+ fluxes (intrinsic neurotoxicity)” value ([2]; peptide alone, SH-SY5Y cells) read?
**A.** The value was “little effect on Ca^2+ fluxes”.

**Q.** And the “transendothelial resistance after 24 hours of incubation with peptide” value [3]?
**A.** The value was 153 Ω·cm^2.

**Q.** What about the “transendothelial resistance after 24 hours of incubation with peptide” value [4] of the same sequence?
**A.** The value was 152 Ω·cm^2.

**Q.** Which “Ganglioside specificity: critical pressure of insertion, GD3” value [5] does the source give for “KEGVLYVGSKTK (listed as Homo sapiens) [α-syn34-45]” here?
**A.** Its value is “+ ((+) means a critical pressure of insertion <25 mN · m^−1)”.

**Q.** What about the “Ganglioside specificity: critical pressure of insertion, GD1a” value [6] of the same sequence?
**A.** The value was “+ ((+) means a critical pressure of insertion <25 mN · m^−1)”.

**Q.** What about the “effect on elevation of intracellular Ca^2+ levels induced by Aβ1-42” value ([2]; Aβ1-42 220 nM, peptide 220 nM (equimolar), Fluo-4 AM fluorescence) of the same sequence?
**A.** The value was “only very little inhibitory activity”.

**Q.** And the “Ganglioside specificity: critical pressure of insertion, GM3” value [7, 11]?
**A.** Its value is “+++ ((+++) a critical pressure of insertion >25 mN · m^−1)”.

**Q.** And the “critical pressure of insertion (πc), GM3 monolayers” value ([7]; monolayers at various initial surface pressures, x-axis intercept (FIG. 2B))?
**A.** The value was 37.5 mN·m^−1.

**Q.** And the “Ganglioside specificity: critical pressure of insertion, GM4” value [8]?
**A.** The value was “+ ((+) means a critical pressure of insertion <25 mN · m^−1)”.

**Q.** And the “Ganglioside specificity: critical pressure of insertion, GT1b” value [9]?
**A.** Its value is “+ ((+) means a critical pressure of insertion <25 mN · m^−1)”.

**Q.** And the “Ganglioside specificity: critical pressure of insertion, GM1” value [1, 11]?
**A.** Its value is “+ ((+) means a critical pressure of insertion <25 mN · m^−1)”.

**Q.** What about the “critical pressure of insertion (πc), GM1 monolayers” value ([1]; monolayers at various initial surface pressures, x-axis intercept (FIG. 2D, 4C)) of the same sequence?
**A.** The value was 25 mN·m^−1.

**Q.** Which results are given for “KEHHGVLYVGTK [reversed chimeric peptide]”?
**A.** interaction with GM3 monolayer (surface pressure increase, kinetics) ([7]; peptide in subphase, initial surface pressure 17.5 mN·m^−1): recognizes both GM1 and GM3 gangliosides; interaction with GM1 monolayer (surface pressure increase) [1, 10]: recognizes both GM1 and GM3 gangliosides
